Assay results: US20260335398A1, “METHODS FOR TREATING PANCREATIC CANCER WITH A COMBINATION OF DES-METHYL PATEAMINE A AND A CLASS I HDAC INHIBITOR” (Baylor University, priority 2023, published 2026)

What was measured:
SNRPN locus = assay: DRIP-qPCR R-loop accumulation at negative locus SNRPN (FIG. 10A); format: cell-based; details: MIA PaCa-2, 6+3 hours
Procedure: FIG. 10A illustrates the fold increase in the percent of input values in DRIP-qPCR for the VGF, HBA2, and SNRPN loci in MIA PaCa-2 cells treated with or without the combination or single agents. Genomic DNA was treated in vitro with or without RNaseH1 before immunoprecipitation using S9.6 antibody. Treatment was for 6+3 hours (i.e., 6-hour romidepsin followed by 3-hour washout with 2 nM DMPatA (combo) or without). Statistical significance was determined by 3-way ANOVA, ***p value<0.001. This experiment confirms the formation of R-loops at the investigated gene loci.
Romidepsin-induced histone hyperacetylation leads to the accumulation of R-loops that can increase genome instability. Because treatment of cells with the combination increased global transcription and led to persistence of histone hyperacetylation, it was postulated the treatment could similarly enhance the formation of R-loops and contribute to cell death. R-loop accumulation was further confirmed using DRIP-qPCR. […]
DRIP assay was performed according to the method previously described (Sanz L A, Chédin F. High-resolution, strand-specific R-loop mapping via S9. 6-based DNA-RNA immunoprecipitation and high-throughput sequencing. Nature protocols. 2019; 14(6):1734). […] Quantitative PCR was performed at the R-loop positive loci VGF and HBA2 genes and R-loop negative locus SNRPN gene with the primers listed in Table 1.

H3K9ac = assay: Immunohistochemistry of H3K9ac in MIA PaCa-2 xenograft tumor tissue (FIG. 2C); format: in vivo, athymic nude mice; details: IHC, tumors at end of study
From the text: FIGS. 2A and 2B illustrate the results of a MIA PaCa-2 xenograft model of PDAC in male athymic nude mice. FIG. 2A compares tumor growth (mm^3) in mice treated with the indicated concentrations of combination, romidepsin and DMPatA using IP route and vehicles described in the materials and methods section below. FIG. 2B compares body weight (g) of mice treated with the combination and single agents following treatment. FIGS. 2C and 2D compare quantification of H3K9ac and c-MYC antibodies. Frozen sections from MIA PaCa-2 xenograft tumor tissues were subjected to immunohistochemical analysis using antibodies against H3K9ac, and c-MYC. Fluorescence images were captured using fluorescent microscopy and the fluorescent signal from H3K9ac and c-MYC antibodies were quantified. To quantify fluorescence intensity at least 500 cells per condition were measured for each antibody at 40× magnification. The median of the signal intensity is shown. Statistical significance was determined by one-way ANOVA using Tukey multiple comparisons test, ****p value<0.0001.
Additionally, snap-frozen tumor tissue samples from the mice treated with vehicle, single agents, and the combination were collected at the end of the study. These samples were sectioned, and the levels of H3K9ac and c-MYC proteins in tumor tissues were assessed by immunohistochemistry. […]

MIA PaCa-2 and KLM cells = assay: RNA-seq gene expression analysis (FIG. 9A); format: cell-based
Procedure: Plots show a significant increase in the overall gene expression in the cells treated with the combination. Cells treated for a total of 18 h (i.e., 6-hour romidepsin followed by 12-hour incubation with 2 nM DMPatA (combo) or without (Romi alone)).
To gain further insight into the effects of the combination treatment gene expression was profiled in MIA PaCa-2 and KLM cells treated with vehicle, the single agents, or the combination for a total of 18 h (i.e., 6-hour romidepsin treatment followed by 12-hour washout with 2 nM DMPatA or without), probing whether alterations observed following combination treatment could be explained by changes in gene expression.
Total RNA was extracted using RNeasy mini kit (Qiagen) from cells collected after 18 hours (6 hours romidepsin (15 nM)+12 hours washout with or without DMPatA (2 nM)) incubation with or without drugs. RNA quantitation and quality were assessed by the Agilent Bioanalyzer 2100 at the Molecular Pathology Shared Resource of the Herbert Irving Comprehensive Cancer Center at Columbia University (mBank). RNA library preparation and sequencing was performed at Columbia University's Sulzberger Genome Center. Briefly, poly-A pull-down was used to enrich mRNAs from total RNA samples, followed by library construction using Illumina TruSeq chemistry. Libraries were then sequenced using Illumina NovaSeq 6000. For the DESeq2 (v 1.40.2) analysis the data were imported with tximport in DESeq2 and a dds object was generated. Variance stabilizing transformation was used on the object and the output was used for the heatmap and PCA plots. Abundance of transcripts was estimated by pseudoalignment using kallisto, and downstream analysis was performed using R (v4.3.1) and the indicated packages. […] Differentially expressed genes were determined using linear regression method (limma v3.56.2), and genes with |log 2FC|≥1 and adjusted p-value <0.05 were plotted accordingly on volcano plots and heatmap (ggplot2 v3.5.0 and ComplexHeatmap v2.16.0). […]

C/C=C1\NC(=O)[C@H]2CSSCC/C=C/[C@H](CC(=O)N[C@H](C(C)C)C(=O)N2)OC(=O)[C@H](C(C)C)NC1=O [romidepsin]
R-loop accumulation at SNRPN (SNRPN locus): no accumulation of R-loops
H3K9ac level in tumor (H3K9ac): increased significantly
change in gene expression (MIA PaCa-2 and KLM cells; romidepsin 15 nM 6 h, with or without DMPatA 2 nM): only a modest increase in gene expression
number of differentially expressed genes (DEGs) (MIA PaCa-2 and KLM cells; total 18 h (6 h romidepsin 15 nM + 12 h with/without DMPatA 2 nM), |log2FC|≥1, adjusted p<0.05): 1551 DEGs
